Counter-ions that a name gives are not always drawn.
Assay: Free radical-scavenging/antioxidant assay (DPPH)
Assay type: biochemical
Details: 50 μM DPPH in 80% methanol, absorbance at 520 nm, 24 h time point (steady state); read-out: EC50 (concentration at which a compound reduces by 50% the peak absorbance of DPPH at 520 nm)
Description: Nitrone compounds of the present invention were tested for their free-radical scavenging/antioxidant activity in an in vitro assay that is accepted by those skilled in the art as a model for conditions involving the generation of free radicals. The assay is based on a reaction between a free-radical donor, 2,2-diphenyl-1-picrylhydrazyl (DPPH), and a radical scavenger/antioxidant to be tested for free-radical scavenging activity. Upon donation of the free-radical electron to the purported radical scavenger, the peak visible absorbance of DPPH (515-520 nm) decreases so that optical density readings at this part of the visual spectrum reflect the progression of the following reaction: DPPH∩+AH→DPPH-H+A∩ where AH is a hypothetical radical scavenger/antioxidant. The assay is based on a protocol originally detailed in Brand-Williams, W. et al., 1995, Use of a Free Radical Method to Evaluate Antioxidant Activity, Lebensm. Wiss. Technol., 28:25-30, with further modifications described in L. R. Fukumoto and G. Mazza, 2000, Assessing Antioxidant and Prooxidant Activities of Phenolic Compounds, J. Agric. Food Chem., 48:3597-3604.
The antioxidant assay was performed using Perkin-Elmer 96-well, clear-bottom, black-wall plates (ordered from E & K Scientific Products) and a Tecan Safire absorbance plate reader. The positive controls were Trolox (6-hydroxy-2,5,7,8-tetramethylchromane-2-carboxylic acid, Sigma-Aldrich), BHA (2(3)-tert-butylhydroquinone monomethyl ether, Sigma-Aldrich), PBN (C-(phenyl)-N-(tert-butyl)nitrone, Sigma-Aldrich) and S-PBN (C-(2-sulfophenyl)-N-(tert-butyl)nitrone, sodium salt, prepared according to E. G. Janzen and R. V. Shetty, 1979, Tetrahedron Lett., 35: 3229-32), and the negative control (i.e., vehicle) was DMSO. In brief, 2 μL of 100×DMSO stock of the desired final concentration of each control or nitrone compound to be tested in the same batch was added to a separate well. To each well was then added 198 μL of a freshly made 50 μM DPPH (Sigma-Aldrich) solution in 80% methanol using a multi-channel pipette. The absorbance was immediately read on the plate reader at 520 nm and thereafter read periodically to assess kinetics until all reactions reached completion (i.e., steady state). Since the steady-state point was 24 h, the assay results are shown from the 24 h time point. The absorbance at 520 nm (OD) was plotted versus the concentrations of the controls and nitrone compounds to assess dose-response and interpolate the EC50 values of the controls and test compounds.

[O-]/[N+](=C\c1ccccc1N1CCOCC1)C1CCCCC1 [Example 21, N-Cyclohexyl-C-[2-(1-morpholino)phenyl]nitrone]
EC50: 100 to 500 µM

[O-]/[N+](=C\c1ccccc1Sc1ccc(Cl)cc1)Cc1ccccc1 [Example 28, N-Benzyl-C-[2-(4-chlorophenylthio)phenyl]nitrone]
EC50: 100 to 500 µM

O=C(O)c1ccsc1/C=[N+](\[O-])C1CCCCC1 [Example 42, N-Cyclohexyl-C-(3-carboxythiophen-2-yl]nitrone]
EC50: 100 to 500 µM

COC(=O)c1ccccc1/C=[N+](\[O-])C(C)(C)C [Example 1, N-(tert-Butyl)-C-[2-(methoxycarbonyl)phenyl]nitrone]
EC50: 500 to 1000 µM

CC(C)(C)[N+]([O-])=Cc1ccccc1S(=O)(=O)O [S-PBN, C-(2-sulfophenyl)-N-(tert-butyl)nitrone, sodium salt, reference compound]
EC50: > 1000 µM

O=C(O)c1ccccc1/C=[N+](\[O-])C1CCCCC1 [Example 8, N-Cyclohexyl-C-(2-carboxyphenyl)nitrone]
EC50: 10 to 100 µM

Source: patent US20070275932A1, “Aryl, heteroaromatic and bicyclic aryl nitrone compounds, prodrugs and pharmaceutical compositions of the same to treat human disorders” (Renovis, Inc., priority 2003, published 2007)
